In patent US20130158098A1, “Alkenyl Substituted Cycloaliphatic Compounds as Chemical Inducers of Proximity” (priority 2010, published 2013):
Entries after “also recorded” stand apart in the source; their conditions may differ.

Legend:
[1] = test system: T cells isolated from spleens of C57BL/6J mice; test: Lymphocyte proliferation assay; format: cell-based, mouse; conditions: anti-CD3 and anti-CD28 stimulation, 72 hours
Description: Naïve T cells were isolated from spleens of C57BL/6J mice with MACS T cell isolation kit (Miltenyi Biotec). Isolated T cells were stimulated for 72 hours at 37° C. with plate-bound monoclonal antibodies against CD3 (10 μg/ml) and CD28 (2 μg/ml) before cell count measurements.

[2] = rat; cited from earlier work
[3] = biological target: T1, VP16-PYLcs and Gal4 DBD-ABIcs (Arabidopsis thaliana, UniProt Q8VZS8); test: ABA-induced luciferase activation (ABA-activator cassette + UAS-luciferase reporter); format: cell-based
T1 construct: HA (from the reverse primer); expressed in transfected cells; host or cells: CHO; also HEK 293/293T, NIH3T3, COS7, B35, Jurkat, E14, TC1, MEF
T1 sequence (Q8VZS8 33-209): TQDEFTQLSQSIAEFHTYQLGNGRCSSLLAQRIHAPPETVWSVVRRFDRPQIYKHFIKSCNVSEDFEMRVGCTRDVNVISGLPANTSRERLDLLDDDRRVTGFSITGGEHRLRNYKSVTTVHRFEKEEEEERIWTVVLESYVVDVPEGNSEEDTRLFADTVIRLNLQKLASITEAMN
T1 sequence (P49597 126-423 partner): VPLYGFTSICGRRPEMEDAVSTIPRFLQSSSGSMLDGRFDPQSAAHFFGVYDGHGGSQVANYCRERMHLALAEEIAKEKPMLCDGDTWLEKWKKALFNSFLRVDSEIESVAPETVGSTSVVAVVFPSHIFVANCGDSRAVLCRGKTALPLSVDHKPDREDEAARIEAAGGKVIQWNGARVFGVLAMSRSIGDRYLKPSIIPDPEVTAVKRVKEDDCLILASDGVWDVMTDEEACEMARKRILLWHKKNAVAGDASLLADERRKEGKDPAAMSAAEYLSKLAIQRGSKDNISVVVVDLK
Text: Activation construct: A fragment of PYL1 (one of PYR/PYL/RCAR members) (aa 33-209, also referred to as “PYLcs”) was linked to a transcriptional activation domain and a fragment of ABI1 (one of PP2C members) (aa 126-423, SEQ ID NO:2, also referred to as “ABIcs”) was linked to a DNA binding domain using recombinant DNA methods. In the constructs illustrated in FIG. 1 and FIG. 2, PYL1 (“PYLcs”) is fused to the VP16 activation domain and ABI1 (“ABIcs”) is fused to the Gal4 DNA binding domain. These two regulatory elements are linked by IRES and driven by the SV40 early promoter. Reporter constructs: Full length Luciferase is driven by Fos gene minimal promoter with 5 copies of Gal4 DNA binding sites immediately upstream of Fos promoter. GFP reporter is driven by IL2 minimal promoter with 5×Gal4 DNA binding sites upstream.
CHO, HEK 293T, NIH 3T3, B35, MEF, and COS7 cells were cultured in Dulbecco's modified Eagle's medium (DMEM) (Gibco) with 10% FBS (Omega Scientific), 1× glutamate (Gibco), and 1× penicillin/streptomycin (Pen/Strep; Gibco). Jurkat cells were cultured in RPMI 1640 (Gibco) with 10% FBS, 1× glutamate, and 1×Pen/Strep. E14 and TC1 were cultured in Knockout DMEM (Gibco) with 7.5% ES FBS (Applied Stem Cell), 7.5% knockout SR (Gibco), 1× Hepes (Gibco), 1× sodium pyruvate (Gibco), 1×MEM NEAA (nonessential amino acids; Gibco), 1×2-mercaptoethanol (Gibco), 1× glutamate, 1×Pen/Strep, and leukemia inhibitory factor (LIF) on gelatin (Millipore)-coated plates. Cells (50,000 to 200,000) were plated in a well of a 24-well plate the day before transfection. An amount of 0.1 to 0.5 μg of DNA of each construct was mixed with 50× (v/w) Opti-MEM (Gibco), and then 3× (v/w) FuGENE HD (Roche) was added and thoroughly mixed. After incubation at room temperature for 20 min, the mixture was added to the cells and cultured for 24 to 48 hours before experiments were performed.
Cells in 24-well plates were lysed with 100 μl of 1× Passive Lysis Buffer (Promega) at room temperature for 10 min on a shaker (˜80 rpm). Cell lysates were then spun down (16,000 g) and 10 μl of supernatant was used for luciferase assay. Luciferase substrate solution [100 μl; 5 mg of D-luciferin (BD Biosciences) and 7 mg of coenzyme A (Sigma) in 33 ml of luciferase reading buffer: 20 mM tricine, 1.07 mM (MgCO3)4Mg(OH)2.5H2O, 2.67 mM MgSO4, 0.1 mM EDTA, 33.3 mM dithiothreitol (DTT), and 0.53 mM ATP in water] was added to the cell lysates, and signal was read with a 3-s delay and 1-s integration with a Turner BioSystem Modulus microplate reader. Obtained data were analyzed by Prism 5 (GraphPad Software).
The inducible gene activation module illustrated in FIG. 1 was introduced into a mammalian cell line (CHO, Chinese Hamster Ovary cells) along with a luciferase reporter to test the inducibility of gene activation by ABA, as shown in FIG. 2.
To assay the ability of ABA to induce effective proximity of chimeric proteins, the ability of ABA to reconstitute protein domains was tested. In this strategy, ABA was used to induce the proximity of the yeast Gal4 DNA binding domain (Gal4 DBD) to the herpes simplex virus VP16 transactivation domain (VP16AD) (FIG. 2B). […] The VP16AD, when tethered to DNA binding domains, strongly activates transcription but cannot act without proximity to a DNA binding domain. To test gene activation by ABA-induced proximity of Gal4 DBD and VP16AD, an ABA-activator cassette was constructed by fusing Gal4 DBD to the domain of ABI1 that interacts with PYL1 (the complementary surface of ABI1, or “ABIcs”) and VP16AD to the domain of PYL1 that interacts with ABI1 (the complementary surface of PYL1, or “PYLcs”) (FIG. 2B).
The ABA-induced domain reconstitution leading to induction of gene expression was compared to a similar system in Chinese hamster ovary (CHO) cells controlled by Rap, which has wild-type FKBP12 and Frb replacing ABIcs and PYLcs, respectively, in the chimeric proteins. […]

[4] = E14 and CHO cells (FIG. 12D, FIG. 19)

## CC1=CC(=O)CC(C)(C)C1(O)/C=C/C(C)=C/C(=O)O (stereo not shown) [ABA, abscisic acid]
[1]
  effect upon proliferation induced by antigen receptor signaling: No statistically significant effect; also recorded: did not have an adverse effect
[2]
  acute oral median lethal dose (LD50): > 5000 mg/kg
[3]; 100 μM, 24 hours, CHO, NIH3T3, HEK293T, COS7, B35, Jurkat, E14, TC1, MEF
  gene activation in different cell types: observed in all cell types tested
[3]; ABA system
  change in protein activity relative to untreated cells (factor): > 1000
[3]; CHO and NIH 3T3 cells, 24 hours
  specificity of luciferase induction (ABA vs Rap protein pairs): only induced by matching small-molecule and dimerizing protein pairs
[3]; CHO cells
  relative activation change compared with Rap: comparable
[3]; CHO cells, 100 μM for 24 hours then ABA-free media
  reversibility of luciferase transcription upon removal: fully reversible
[3]; CHO cells, 24 hours
  dose response of transactivation: large linear range
[3]; CHO cells, induced 24 hours, washed five times with fresh medium
  time for gene activation to reverse to background after withdrawal: ≤ 24 h
[3]; [4]
  time at which activation of luciferase was first observed after addition: 1.5 h
  time to reach maximum luciferase activation: ≤ 24 h
[3]; E14 cells
  relative activation change compared with Rap: much higher
[3]; murine embryonic stem (ES) cells, NIH 3T3 and HEK 293T cells, 24 hours
  luciferase production induced: more than three orders of magnitude
